EP4000627A1, “TREATMENT OF ABDOMINAL AORTIC ANEURYSM AFTER ITS CLINICAL MANIFESTATION” (Fundacion Instituto De Investigacion Sanitaria Fundacion …, priority 2020, dated 2022)
Where a SMILES comes first, the peptide text is derived from it. Bridges are numbered along the chain shown (N, C = ends). [ ]: non-standard residue; d: D form. The star is where a group is joined. 1Nal = N[C@@H](Cc1cccc2ccccc12)C(=O)O; Acm = CC(=O)NC*

Experiments:
in vitro = experiment: in vitro
Experimental: (§1) S1 and S1PS5 peptides derived from SOCS1 KIR domain (residues 53-68) conjugated with the cell penetrating sequences at N-terminal were synthesized by solid phase method following the Fmoc strategy, purified by preparative reverse phase-HPLC and lyophilized. Peptides were dissolved in 1% DMSO in saline solution (S1) and H2O (S1PS5), then filter-sterilized and stored at -80°C before use. For biodistribution studies, peptides were labelled with rhodamine or carboxytetramethylrhodamine (TAMRA) at N-terminal. For stability assays, peptides were incubated at 37°C with 25% foetal bovine serum (FBS). At selected times, 80 µL aliquots were taken, precipitated with 15% trichloroacetic acid, and further analysed by reverse phase HPLC with UV detector.

mouse VSMC = experiment: cellular uptake of TAMRA-conjugated S1PS5 peptides (confocal microscopy); assay type: cell-based; conditions: for degraded in cells: at 24 hours, TAMRA fluorescence intensity; for efficient uptake after: quantification of peptide internalization by TAMRA fluorescence intensity
[1] = 24 hours post-injection
Experimental: as §1

SMILES	metabolised at 20 h (in vitro; 25% foetal bovine serum) [%]	remaining at 42 h (in vitro; 25% foetal bovine serum) [%]	degraded in cells (mouse VSMC)	efficient uptake after (mouse VSMC) [h]	localization in aortic tissue (confocal analysis) [1]	degradation rate (in vitro; 25% FBS, 37°C, at 17-20 hours) [%]
CC(=O)NCSC[C@@H]1NC(=O)[C@H]([C@@H](C)O)NC(=O)[C@@H](NC(=O)CNC(=O)CNC(=O)[C@H](CCC(N)=O)NC(=O)[C@@H]2CCCN2C(=O)[C@@H]2CCCN2C(=O)[C@H](CCCNC(=N)N)NC(=O)[C@H](CCCNC(=N)N)NC(=O)[C@H](CCCNC(=N)N)NC(=O)[C@H](CCC(N)=O)NC(=O)[C@H](CCCNC(=N)N)NC(=O)[C@H](CCCNC(=N)N)NC(=O)[C@H](CCCCN)NC(=O)[C@H](CCCCN)NC(=O)[C@H](CCCNC(=N)N)NC(=O)CN)CC(=O)NCCCC[C@@H](C(=O)N[C@@H](Cc2c[nH]cn2)C(=O)O)NC(=O)[C@H](CCCNC(=N)N)NC(=O)[C@H](Cc2cccc3ccccc23)NC(=O)[C@H]([C@@H](C)O)NC(=O)[C@H](CCC(N)=O)NC(=O)[C@H](CCCNC(=N)N)NC1=O [internal cyclic S1PS5 Nal1, GRKKRRQRRRPPQGGDTCAcmRQTNal1RKH] (H-GRKKRRQRRRPPQGGDTC(Acm)RQT[1Nal]RKH-OH; lactam 16-24)	~20	~40	40%	~2	detected	
CC(=O)NCSC[C@@H]1NC(=O)[C@H]([C@@H](C)O)NC(=O)[C@@H](NC(=O)CNC(=O)CNC(=O)[C@H](CCC(N)=O)NC(=O)[C@@H]2CCCN2C(=O)[C@@H]2CCCN2C(=O)[C@H](CCCNC(=N)N)NC(=O)[C@H](CCCNC(=N)N)NC(=O)[C@H](CCCNC(=N)N)NC(=O)[C@H](CCC(N)=O)NC(=O)[C@H](CCCNC(=N)N)NC(=O)[C@H](CCCNC(=N)N)NC(=O)[C@H](CCCCN)NC(=O)[C@H](CCCCN)NC(=O)[C@H](CCCNC(=N)N)NC(=O)CN)CC(=O)NCCCC[C@@H](C(=O)N[C@@H](Cc2c[nH]cn2)C(=O)O)NC(=O)[C@H](CCCNC(=N)N)NC(=O)[C@H](Cc2ccccc2)NC(=O)[C@H]([C@@H](C)O)NC(=O)[C@H](CCC(N)=O)NC(=O)[C@H](CCCNC(=N)N)NC1=O [internal cyclic S1PS5, GRKKRRQRRRPPQGGDTCAcmRQTFRKH] (H-GRKKRRQRRRPPQGGDTC(Acm)RQTFRKH-OH; lactam 16-24)	~40		almost completely degraded	~2		
CC(=O)NCSC[C@H](NC(=O)[C@@H](NC(=O)[C@H](CC(=O)O)NC(=O)CNC(=O)CNC(=O)[C@H](CCC(N)=O)NC(=O)[C@@H]1CCCN1C(=O)[C@@H]1CCCN1C(=O)[C@H](CCCNC(=N)N)NC(=O)[C@H](CCCNC(=N)N)NC(=O)[C@H](CCCNC(=N)N)NC(=O)[C@H](CCC(N)=O)NC(=O)[C@H](CCCNC(=N)N)NC(=O)[C@H](CCCNC(=N)N)NC(=O)[C@H](CCCCN)NC(=O)[C@H](CCCCN)NC(=O)[C@H](CCCNC(=N)N)NC(=O)CN)[C@@H](C)O)C(=O)N[C@@H](CCCNC(=N)N)C(=O)N[C@@H](CCC(N)=O)C(=O)N[C@H](C(=O)N[C@@H](Cc1ccccc1)C(=O)N[C@@H](CCCNC(=N)N)C(=O)N[C@@H](CO)C(=O)N[C@@H](Cc1c[nH]cn1)C(=O)O)[C@@H](C)O [linear S1PS5, GRKKRRQRRRPPQGGDTCAcmRQTFRSH] (H-GRKKRRQRRRPPQGGDTC(Acm)RQTFRSH-OH)						40
